Results taken from patent publication US20250205384A1, “HEMOSTATIC MATERIAL” (Toray Industries, Inc., priority 2018, published 2025).

What was measured:
[1] = test system: guinea pig-derived PRP; experiment: Evaluation of platelet aggregation capacity of hemostatic material (in vitro), protein assay of attached platelets; type: cell-based; conditions: lipid supported on base part in place of DHSG lipids
Description: From the hemostatic materials D1, D2, D3 and D4, a base part (fiber sheet part) supporting DHSG, Asp-DHSG, Glu-DHSG and AG-DHSG, respectively, was taken out. To a 12-well plate, the base part (fiber sheet part) that was taken out and 1 mL of guinea pig-derived PRP (2.0×10^5/μL) prepared by the abovementioned method were added. Thereafter, ADP (1 μM, 100 μL) that activates platelets was added, and after allowing to stand at room temperature for 5 minutes, the mixture was washed with 1 mL of DPBS twice. Thereafter, to dissolve platelets attached to the base part (fiber sheet part), 500 μL of 0.5% Triton X was added, followed by allowing to stand at room temperature for 1 hour to obtain a platelet lysate. To a 96-well plate, 10 μL of the platelet lysate prepared by the abovementioned method and 150 μL of Pierce (trademark) 660 nm Protein Assay Kit were added, followed by allowing to stand for 5 minutes. By measuring absorbance at 660 nm using a microplate reader, proteins were quantitatively determined, and the determination results were used as an index of the count of platelets which were not washed away and were attached to the fiber sheet. The results in FIG. 8 are relative values when the platelet count in using the hemostatic material D1 is regarded as 1. […]

[2] = Thickness of lipid membrane from SEM observation image; type: physicochemical; conditions: lipid on PLLA fiber sheet, SEM ×5,000 (FIGS. 17 to 20)
Description: The thickness of the lipid membrane is preferably 10 to 1,000 nm, more preferably 30 to 500 nm, and still more preferably 60 to 240 nm. The method of measuring the lipid membrane is as follows. The lipid membrane is observed with a scanning electron microscope (SEM). The thickness of five points optionally selected in the SEM observation image is measured, and the mean is regarded as the thickness of the lipid membrane.
An SEM observation image (×1,000) of the base complex before supporting a lipid is shown in FIG. 9, and SEM observation images (×1,000) of the hemostatic materials E2 to E8 are shown in FIGS. 10 to 16, respectively.

[3] = Solubility in t-butyl alcohol; conditions: in words

Structure (SMILES) | thickness of the lipid membrane [2] [nm] | further results
CCCCCCCCCCCCCCCC(=O)OC[C@H](COP(=O)([O-])OCC[N+](C)(C)C)OC(=O)CCCCCCCCCCCCCCC [DPPC, 1,2-dipalmitoyl-sn-glycero-3-phosphatidylcholine] |  | platelets detected on the base part (fiber sheet part) after washing [1]: no platelets were detected
CCCCCCCCCCCCCCCCOC(=O)CCC(NC(=O)CCC(=O)O)C(=O)OCCCCCCCCCCCCCCCC [DHSG, 1,5-Dihexadecyl-N-Succinyl-L-Glutamate] | 131 | 
CCCCCCCCCCCCCCCCOC(=O)CCC(NC(=O)CCC(=O)NC(CC(=O)O)C(=O)O)C(=O)OCCCCCCCCCCCCCCCC (stereo not drawn) [Asp-DHSG] | 153 | 
CCCCCCCCCCCCCCCC(=O)OCC(COP(=O)(O)O)OC(=O)CCCCCCCCCCCCCCC (stereo not drawn) [Anionic DPPA] |  | solubility in t-butyl alcohol compared with the DPPA sodium salt [3]: higher solubility in t-butyl alcohol
CCCCCCCCCCCCCCCCOC(=O)CCC(NC(=O)CCC(=O)NC(CCC(=O)NC(CC(=O)O)C(=O)O)C(=O)NC(CC(=O)O)C(=O)O)C(=O)OCCCCCCCCCCCCCCCC (stereo not drawn) [AG-DHSG] | 124 | 
CCCCCCCCCCCCCCCCOC(=O)CCC(NC(=O)CCC(=O)NC(CCC(=O)O)C(=O)O)C(=O)OCCCCCCCCCCCCCCCC (stereo not drawn) [Glu-DHSG] | 187 | 
